Measured values taken from patent US20230088286A1, “USP7 INHIBITOR FOR USE IN THE TREATMENT OF CANCER” (ALMAC DISCOVERY LIMITED, priority 2020, published 2023).
pEC50, pIC50: −log10 of the molar value. Entries after “also recorded” stand apart in the source; their conditions may differ. Like-named read-outs stand apart in the source and are kept apart here.

Tests used:
[1] = system: CT-26 cells in BALB/C mice; assay: CT-26 syngeneic tumour model (AD-04 study)
Method: FIG. 30: Effect of USP7 on the tumour microenvironment in vivo.
For subcutaneous tumour implantation, CT26 cells were injected subcutaneously (1×10^6cells in 200 μL of RPMI) in the right flank of 8- to 10-week-old BALB/c female mice. […] Tumour volume (in mm^3) was measured twice a week with a digital caliper and calculated by the following formula: volume=(width)^2×length/2. Body weight was measured twice a week. […]

VEGF = assay: Circulating serum VEGF by ELISA in CT-26 tumour bearing mice; format: in vivo, mouse; conditions: day 15 post tumour grafting
tumour VEGFA mRNA = assay: RNA-seq of syngeneic CT-26 tumour samples; format: in vivo, mouse
Method: Finally, mode of action of AD-04 in vivo was analysed by RNA-seq. […] Moreover, individual genes within HIF1A pathway were differentially modulated upon USP7 inhibition.

CT-26 tumours [2] = assay: Histology and immunofluorescence of CT-26 tumours (ADC-159); format: in vivo, mouse
Method: FIG. 36: ADC-159 prevents tumour vessel maturation in CT-26 syngeneic mouse model in vivo. FFPE tumour blocks were prepared after 15 days of treatment with vehicle and ADC-159 and co-stained with endothelial cell marker CD31 (green), pericyte marker NG2 (red) and DAPI (blue; n=5 blocks/group). Mature blood vessels have fine branching positive for CD31 and NG2 staining (A, left image) which is lost when treated with USP7 inhibitor (B, right image).
FIG. 37: ADC-159 decreases tumour area and increases necrosis area in the CT-26 syngeneic mouse model in vivo. […] FFPE tumour blocks were prepared followed by quantification of tumour and necrosis using HALO software.
After rinsing with running water, the specimens were transferred to the Vacuum Tissue Processor (HistoCore PEARL, Leica) for dehydration, then embedded into FFPE blocks using Tissue embedding center (EG1150, Leica). FFPE blocks were sectioned with a manual rotary microtome (RM2235, Leica), 4 μm thickness/section. Sections were processed for staining with hematoxylin and eosin (H&E) or for immunofluorescent (IF) analysis. For IF sections were stained with primary antibodies specific for CD31 (abcam), NG2 (sigma) and cell nuclei were counterstained with DAPI. All stained sections were scanned with Pannoramic Digital Slide Scanners for 40× magnification (3[…], Pannoram ic SCAN). All the images were analyzed with HALOTM platform were tumour area and large areas of necrosis were quantified. Non-tumour tissue on the periphery was excluded.

CT-26 tumours [3] = assay: Flow cytometry of tumour infiltrating immune cells, CT-26 model (ADC-159); format: in vivo, mouse; conditions: ADC-159 alone or in combination with ICIs, 13 days
Method: FIG. 40: USP7 inhibitor ADC-159 modulates the tumour microenvironment immune compartment in vivo.
Harvested tumours were collected in HBSS medium, minced and incubated 30 minutes at 37° C. in non-enzymatic cell dissociation buffer followed by mechanical dissociation through a 70 μm filter. Viable cells were then enriched using Ficoll® gradient. All cells suspensions were count and one million viable cells were seeded in 96-well plates in 100 μL of Staining Buffer for acquisition. Non-specific binding was performed using mouse FcR blocking reagent. Viobility 405/452 Fixable Dye (Miltenyi Biotec) was used to assess cell viability. The antibodies directed against the CD45, CD335 (Nkp46), FoxP3 CD8a, CD4, CD3e, CD19, F4/80, CD11c, CD11 b (Miltenyi Biotec), Ly6G and Ly6C (Biolegend) were added. The stained cells were analyzed with a Fortessa X20 cytometer (BD Biosciences).

USP7 [4] = target: T1, USP7 (Homo sapiens, UniProt Q93009); assay: USP7 FP; format: biochemical
USP7 [5] = target: T1, USP7; assay: TE (HCT116); format: cell-based
LogD7.4 = format: physicochemical; conditions: pH 7.4
LM CLhep (h) = format: in vitro ADME, human
LM CLhep (r) = format: in vitro ADME, rat
LM CLhep (m) = format: in vitro ADME, mouse
LM CLhep (d) = format: in vitro ADME, dog
MDCK permeability = format: in vitro ADME; conditions: dog, MDCK; read-out: MDCK Papp ratio
MDCK = MDCK permeability; format: in vitro ADME
Caco-2 permeability = format: in vitro ADME; conditions: human, Caco-2; read-out: Caco-2 Papp ratio
Caco-2 = Caco-2 permeability; format: in vitro ADME
PPB Fu (m) = format: in vitro ADME; conditions: mouse, plasma
hERG = hERG (Homo sapiens, UniProt Q12809); assay: hERG
1A2 = 1A2 (Homo sapiens, UniProt P05177); assay: Cyp inhibition 1A2; format: in vitro ADME; conditions: read-out: Cyps: 1A2
2C19 = 2C19 (Homo sapiens, UniProt P33261); assay: Cyp inhibition 2C19; format: in vitro ADME; conditions: read-out: Cyps: 2C19
CYP3A4 = CYP3A4 (Homo sapiens, UniProt P08684); assay: TDI shift CYP3A4; format: in vitro ADME; conditions: value in brackets; shift N/A
Sequence of CYP3A4 (P08684 whole entry): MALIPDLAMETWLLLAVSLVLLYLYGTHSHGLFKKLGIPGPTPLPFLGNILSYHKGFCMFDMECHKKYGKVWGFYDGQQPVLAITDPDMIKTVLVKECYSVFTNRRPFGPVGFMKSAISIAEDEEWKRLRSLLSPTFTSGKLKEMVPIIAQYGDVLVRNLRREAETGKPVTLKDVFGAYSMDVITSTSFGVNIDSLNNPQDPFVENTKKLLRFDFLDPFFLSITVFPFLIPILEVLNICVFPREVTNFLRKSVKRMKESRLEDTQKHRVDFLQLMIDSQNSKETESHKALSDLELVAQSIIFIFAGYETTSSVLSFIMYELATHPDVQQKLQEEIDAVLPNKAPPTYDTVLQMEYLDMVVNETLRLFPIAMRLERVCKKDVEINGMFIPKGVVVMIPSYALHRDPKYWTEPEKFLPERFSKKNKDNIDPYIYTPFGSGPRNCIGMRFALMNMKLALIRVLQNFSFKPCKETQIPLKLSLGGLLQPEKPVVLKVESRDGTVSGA

T1 sequence (Q93009 whole entry): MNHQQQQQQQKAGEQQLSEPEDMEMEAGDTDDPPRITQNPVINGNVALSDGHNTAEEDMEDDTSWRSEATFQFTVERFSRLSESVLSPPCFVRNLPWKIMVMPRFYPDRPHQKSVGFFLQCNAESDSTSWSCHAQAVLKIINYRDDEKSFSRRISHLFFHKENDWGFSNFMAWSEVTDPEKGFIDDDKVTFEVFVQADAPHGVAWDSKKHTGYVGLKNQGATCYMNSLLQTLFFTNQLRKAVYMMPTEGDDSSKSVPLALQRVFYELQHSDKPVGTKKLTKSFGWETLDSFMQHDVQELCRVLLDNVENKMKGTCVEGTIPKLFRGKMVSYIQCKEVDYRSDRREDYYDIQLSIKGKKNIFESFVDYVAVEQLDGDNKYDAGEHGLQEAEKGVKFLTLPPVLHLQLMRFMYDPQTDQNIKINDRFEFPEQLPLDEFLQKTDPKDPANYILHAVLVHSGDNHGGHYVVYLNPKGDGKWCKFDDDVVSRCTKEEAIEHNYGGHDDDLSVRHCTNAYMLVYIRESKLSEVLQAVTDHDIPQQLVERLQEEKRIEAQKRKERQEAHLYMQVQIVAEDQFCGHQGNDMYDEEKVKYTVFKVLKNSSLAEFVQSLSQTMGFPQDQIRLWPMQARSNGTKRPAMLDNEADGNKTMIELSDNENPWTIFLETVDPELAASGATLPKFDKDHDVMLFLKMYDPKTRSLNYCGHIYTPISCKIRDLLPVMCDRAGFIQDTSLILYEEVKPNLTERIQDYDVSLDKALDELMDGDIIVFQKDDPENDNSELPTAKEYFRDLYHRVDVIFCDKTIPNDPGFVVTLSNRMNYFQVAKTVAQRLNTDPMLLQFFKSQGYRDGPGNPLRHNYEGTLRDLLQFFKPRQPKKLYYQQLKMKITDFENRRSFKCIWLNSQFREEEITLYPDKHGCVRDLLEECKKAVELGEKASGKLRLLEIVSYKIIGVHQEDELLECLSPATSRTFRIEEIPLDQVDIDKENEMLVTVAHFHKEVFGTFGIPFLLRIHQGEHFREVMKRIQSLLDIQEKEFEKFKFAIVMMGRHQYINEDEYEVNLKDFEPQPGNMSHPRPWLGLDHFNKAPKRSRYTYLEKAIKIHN
Sequence of hERG (Q12809 whole entry): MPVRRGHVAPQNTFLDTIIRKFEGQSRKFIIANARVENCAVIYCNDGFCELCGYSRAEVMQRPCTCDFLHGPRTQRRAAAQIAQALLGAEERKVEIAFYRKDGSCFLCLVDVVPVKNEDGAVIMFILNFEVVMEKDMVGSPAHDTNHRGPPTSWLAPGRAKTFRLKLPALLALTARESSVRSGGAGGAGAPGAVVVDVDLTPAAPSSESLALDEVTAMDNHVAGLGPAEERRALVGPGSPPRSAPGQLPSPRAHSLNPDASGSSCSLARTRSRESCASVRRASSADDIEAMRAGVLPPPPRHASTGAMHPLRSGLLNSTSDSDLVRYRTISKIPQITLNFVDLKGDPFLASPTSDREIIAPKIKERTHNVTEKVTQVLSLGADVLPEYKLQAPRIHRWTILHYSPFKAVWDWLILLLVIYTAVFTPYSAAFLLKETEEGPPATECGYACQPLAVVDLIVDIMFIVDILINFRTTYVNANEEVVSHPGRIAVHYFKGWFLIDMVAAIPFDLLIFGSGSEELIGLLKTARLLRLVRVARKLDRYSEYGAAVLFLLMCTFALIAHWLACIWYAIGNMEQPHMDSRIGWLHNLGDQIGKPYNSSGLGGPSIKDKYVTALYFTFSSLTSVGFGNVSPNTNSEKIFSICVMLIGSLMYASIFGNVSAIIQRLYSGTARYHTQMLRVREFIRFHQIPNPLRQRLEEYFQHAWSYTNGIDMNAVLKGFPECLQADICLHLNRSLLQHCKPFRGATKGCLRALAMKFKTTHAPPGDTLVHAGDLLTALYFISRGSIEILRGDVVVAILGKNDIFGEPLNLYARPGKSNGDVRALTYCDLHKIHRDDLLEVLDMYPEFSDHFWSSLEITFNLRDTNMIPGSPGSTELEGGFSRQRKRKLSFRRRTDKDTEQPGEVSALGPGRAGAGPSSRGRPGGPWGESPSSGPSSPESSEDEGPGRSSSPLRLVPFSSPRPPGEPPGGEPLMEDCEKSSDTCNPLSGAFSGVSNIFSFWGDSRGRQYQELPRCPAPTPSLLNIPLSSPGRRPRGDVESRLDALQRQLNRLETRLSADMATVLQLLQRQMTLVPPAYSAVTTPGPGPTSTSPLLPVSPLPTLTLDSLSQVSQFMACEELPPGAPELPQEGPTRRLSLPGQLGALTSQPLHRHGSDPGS
Sequence of 2C19 (P33261 whole entry): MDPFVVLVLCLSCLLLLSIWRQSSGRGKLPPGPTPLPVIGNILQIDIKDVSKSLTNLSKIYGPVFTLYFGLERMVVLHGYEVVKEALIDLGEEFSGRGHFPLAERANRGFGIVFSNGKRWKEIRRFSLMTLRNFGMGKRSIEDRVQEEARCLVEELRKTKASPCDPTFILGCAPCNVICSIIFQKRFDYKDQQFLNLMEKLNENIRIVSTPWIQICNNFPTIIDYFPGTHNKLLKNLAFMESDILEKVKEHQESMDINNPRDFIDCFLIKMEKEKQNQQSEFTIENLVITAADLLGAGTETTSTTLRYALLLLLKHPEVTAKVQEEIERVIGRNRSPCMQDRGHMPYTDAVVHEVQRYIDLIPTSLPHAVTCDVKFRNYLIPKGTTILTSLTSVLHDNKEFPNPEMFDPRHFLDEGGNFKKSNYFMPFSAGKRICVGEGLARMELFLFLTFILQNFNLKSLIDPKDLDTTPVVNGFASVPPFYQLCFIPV
Sequence of 1A2 (P05177 whole entry): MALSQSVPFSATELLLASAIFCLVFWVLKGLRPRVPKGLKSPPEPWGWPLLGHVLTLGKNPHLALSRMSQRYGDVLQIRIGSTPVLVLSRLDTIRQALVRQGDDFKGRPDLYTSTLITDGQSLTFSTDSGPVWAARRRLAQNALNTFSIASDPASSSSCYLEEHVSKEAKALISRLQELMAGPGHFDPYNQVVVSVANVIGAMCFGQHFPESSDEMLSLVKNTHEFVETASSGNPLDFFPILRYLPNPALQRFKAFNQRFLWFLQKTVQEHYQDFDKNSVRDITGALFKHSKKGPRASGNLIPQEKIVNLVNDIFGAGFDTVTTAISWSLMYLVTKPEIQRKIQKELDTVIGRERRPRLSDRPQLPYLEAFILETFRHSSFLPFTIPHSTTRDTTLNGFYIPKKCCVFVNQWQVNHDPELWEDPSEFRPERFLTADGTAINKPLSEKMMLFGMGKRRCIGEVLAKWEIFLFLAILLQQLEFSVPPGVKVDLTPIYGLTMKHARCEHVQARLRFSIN

## C[C@H](CC(=O)N1CCC(O)(Cn2cnc3c(-c4ccc(CN)cc4)n(C)nc3c2=O)CC1)c1ccccc1 [AD-04, (R)-3-(4-(Aminomethyl)phenyl)-6-((4-hydroxy-1-(3-phenylbutanoyl)piperidin-4-yl)methyl)-2-methyl-2H-pyrazolo[4,3-d]pyrimidin-7(6H)-one]
[1]; 360 h
  tumour growth inhibition: 53%
[1]; dose-dependent manner
  growth of CT26 xenografts (tumour volume): inhibited the growth
[1]; mouse, in vivo
  tolerability, bodyweight of tumour-bearing mice: no significant bodyweight loss; also recorded: well tolerated
VEGF
  circulating VEGF in mouse serum: significant dose-dependent decrease
Tumour VEGFA mRNA
  tumour VEGFA long isoform mRNA: increase
  tumour VEGFA short isoform mRNA: decrease

## CC1(C(=O)N2CCC(O)(Cn3cnc4c(cc(Cl)n4-c4ccc5c(c4)CCO5)c3=O)CC2)CC1 [ADC-159, 6-Chloro-7-(2,3-dihydrobenzofuran-5-yl)-3-((4-hydroxy-1-(1-methylcyclopropane-1-carbonyl)piperidin-4-yl)methyl)-3,7-dihydro-4H-pyrrolo[2,3-d]pyrimidin-4-One]
CT-26 tumours [2]; 100 mg/kg, compared to vehicle
  necrosis area at the tumour site: significant increase
  tumour area: significant reduction
CT-26 tumours [2]; 15 days of treatment
  tumour vessel formation (CD31/NG2 staining): prevents tumour vessel formation
CT-26 tumours [3]
  recruitment of cytotoxic lymphocytes into the tumour: increases recruitment
USP7 [4]; asterisk not explained, read-out: USP7 FP IC50 (value in brackets marked *)
  pIC50: 6.80
USP7 [4]; read-out: USP7 FP IC50
  pIC50: 6.41
USP7 [5]
  pEC50: 6.90
LogD7.4
  LogD7.4: 2.5
LM CLhep (h)
  LM CLhep (h): 9
LM CLhep (r)
  LM CLhep (r): 27
LM CLhep (m)
  LM CLhep (m): 55
LM CLhep (d)
  LM CLhep (d): 22
MDCK permeability
  efflux ratio: 276
MDCK; A:B
  MDCK A:B: 0.2
MDCK; B:A
  MDCK B:A: 50.1
Caco-2 permeability
  efflux ratio: 4.1
Caco-2; A:B
  Caco-2 A:B: 8.5
Caco-2; B:A
  Caco-2 B:A: 34.7
PPB Fu (m)
  fraction unbound: 0.1
hERG
  pIC50: 4.81
1A2
  pIC50: < 4.70
2C19
  pIC50: < 4.70
CYP3A4
  pIC50: < 4.70
